Data reported in patent publication EP2787958B1, “CHELIDONIUM MAJUS EXTRACTS AND THEIR USE IN THE TREATMENT OF SKIN DISORDERS AND PROMOTION OF SKIN REGENERATION” (priority 2011, dated 2013).
Where two headings read alike, the source gives them in different places.

Tests used:
[1] = Anti-radical activity (decay of the DPPH radical); type: biochemical; conditions: for Anti-radical (skin protective): 24 hours
Experimental: With regard to assays aimed at evaluating anti-radical activity, a chemical test was used where the decay of the diphenylpicrylhydrazyl (DPPH) radical is assessed in the absence or in the presence of the test substances. Indeed, the DPPH radical is used to test the ability of substances to act as free radical scavengers. DPPH in solution has a purple colour with a maximum absorbance peak at 517 nm which changes to yellow-colourless when this radical extracts a hydrogen atom from a radical scavenger to give rise to the reduced form DPPH-H. The assay has been conducted in quadruplicate in 96 well microplates (SARSTEDT Tissue Culture Plate 96-well flat bottom cell+). 50 µl of an ethanol solution of the test substance at 2X concentration and then 50 µl of a 200 µM solution of DPPH (MW 168,18, Aldrich 2,2-di(4-tert-octylphenyl)-1-picrylhydrazyl, free radical Lot# MKBF7574V Cat N° 257621-100 mg) have been added to each well of the microplate. A positive control consisting of 0.1 mM vitamin C and a negative control consisting of ethanol alone were included in each microplate. After 30 minutes from the addition of DPPH, photographs of the plates were taken (Canon PowerShot A610 5.0 Mpixels) and read spectrophotometrically at 530 nm.
Based on the analysis of the results reported in Table 9, some substances were selected for further characterisation of their anti-radical activity. For the selected substances, dose-activity curves were obtained and the IC50 value were computed using a non-linear regression model with the Hill equation at variable slope. Such substances had been selected due to both their anti-radical potential and the easiness of their isolation/production. The selection of substances was made in view of cosmetics applications. Moreover their activity on human dermal fibroblasts (HDF) is expected to be useful also for the development of dermatological medications. The selected substances are discussed below.

HDF cells [2] = assay: Summary of uses and toxic effects deduced from the cell assays (Table 1); type: cell-based, Human; conditions: for Anti-fibrotic (prevention of scar formation, also from acne) / Cytoprotective (antioxidant, anti-inflammatory and anti-ageing; useful also in the treatment of acne) / Cytotoxic / Irritant / Wound-healing: 24 hours
Experimental: Antiradical (skin protective): this is deduced from the free radical scavenger effects.
Revitalizing: this is deduced from the increased mitochondrial dehydrogenase effect.
Cytoprotective, with regard to oxidative damage (antioxidant, anti-inflammatory and anti-ageing): this is deduced from antagonising the stimulation of IL-1β and/or IL-6 induced by 100 µM H2O2 and from the absence of changes in cell morphology similar to the ones due to cell senescence.
Wound healing: this is deduced from the effect of inhibiting the production of IL-1β and by the effect of stimulating cell proliferation under standard growth conditions.
Cytotoxicity: this is deduced from the effect of reducing mitochondrial dehydrogenase activity or from the presence of morphologies characteristic of cell senescence.
Irritation: this is deduced from the effect of increased production of IL-6 and/or IL-1β under standard growth conditions.
Said uses in the fields of medicine and cosmetics or the toxic effects of the substances of the invention at a given dosage, for 24 hours, are summarized in Table 1 below.

interleukin 6 (IL-6) = assay: Inflammatory cytokines in cell supernatant (Mosaic ELISA microarray): IL-6; type: cell-based, Human; conditions: for IL-6 ng/(ml* No. of cells from photo) ± SD: 24 hours; for IL-6 production (effect in words): 1-10 µM
Experimental: (§1) The inflammatory cytokines, CD40 ligand (CD40L), interferon γ (INF-γ), interleukin 1α (IL-1α), interleukin 1β (IL-1β), interleukin 6 (IL-6), interleukin 8 (IL-8), interleukin 17 (IL-17) and tumour necrosis factor α (TNF-α) were determined qualitatively and quantitatively. Each measurement was performed in duplicate using a Mosaic™ ELISA protein microarray assay system from R&D System in accordance with the supplier's instructions. Furthermore, with the aim of obtaining a correlation model between light signal intensity and cytokine concentration, a calibration curve using 6 concentrations was performed for each of them. Analysis of the data was performed using the dedicated Q-View™ Imager software package from Quansys Biosciences

[3] = test system: Human dermal fibroblasts (HDF); assay: Mitochondrial dehydrogenase activity (WST-1 formazan assay) in HDF cells; conditions: for Revitalizing agent: 24 hours; for activity at 1 µM / activity at 10 µM: Homo sapiens, Fibroblast, read-out: % mitochondrial dehydrogenase activity ± SD; for mitochondrial dehydrogenase activity (effect in words): fibroblasts
Experimental: Human dermal fibroblasts were used for assay at the 3rd T75 passage.
Mitochondrial dehydrogenase activity was measured in HDF, HEK and HUVEC cells by means of the formazan assay, using the WST-1 kit from Roche Diagnostic in accordance with the supplier's instructions. Briefly: the reagent was added (10 µl per well), the incubation was carried out for a further 2 hours or 4 hours, and, at the end of this time, the absorbance was read for 1 s at a wavelength of 450 nm in a Perkin Elmer Victor 2 Wallac microplate reader.
The activity percentage (% mitochondrial dehydrogenase activity) is defined as: % mitochondrial dehydrogenase activity = ((absorbance of treated cells - absorbance of blank) / (absorbance of control - absorbance of blank)) x 100.
The tests were performed with observations after 18 hours, seeding 8,000 cells per well, and after 42 hours, seeding 2,000 cells per well. Furthermore, in order to better analyze the dose/response curves for dihydroberberine, canadine and stylopine, curves were collected at 11 concentrations by seeding 2,000 cells per well with 46 hours incubation.
Dose/response curves are plotted at 6 concentrations. The tests were performed with observations after 24 hours, seeding 8,000 cells per well.

interleukin 1β (IL-1β) = assay: Inflammatory cytokines in cell supernatant (Mosaic ELISA microarray): IL-1β; type: cell-based, Human; conditions: for IL-1β ng/(ml* No. of cells from photo) ± SD: 24 hours; for IL-1β production (effect in words): 1-10 µM
Experimental: as §1

HDF cells [4] = assay: Evaluation of cell proliferation (counting of Sirius Red stained cells in photographs); conditions: 24 hours
[5] = test system: collagen produced by HDF cells; assay: Quantity of collagen produced by the cells (elution of Sirius Red)
[6] = Dose 1 µm (coptisine: 1 pm [sic])

## O=C1O[C@H]([C@@H](O)CO)C(O)=C1O [vitamin C, reference compound]
[1]; 0.1 mM, positive control
  % DPPH activity: 0%

## c1c2c(cc3c1OCO3)-c1cc3ccc4c(c3c[n+]1CC2)OCO4 [coptisine]
HDF cells [2]; [6]
  Anti-fibrotic (prevention of scar formation, also from acne): No
  Cytoprotective (antioxidant, anti-inflammatory and anti-ageing; useful also in the treatment of acne): No
  Cytotoxic: No
  Irritant: Yes (↑IL-6, ↑IL-1β)
  Wound-healing: No
HDF cells [2]; Dose 10 µm
  Anti-fibrotic (prevention of scar formation, also from acne): No
  Cytoprotective (antioxidant, anti-inflammatory and anti-ageing; useful also in the treatment of acne): No
  Cytotoxic: No
  Irritant: Yes (↑IL-6, ↑IL-1β)
  Wound-healing: No
HDF cells [2]; exposure for 24 hours
  concentrations at which toxic (irritant) effects are shown: greater than or equal to 1 µM
Interleukin 6 (IL-6); 1 µM, 34 ng/ml TGF-β1
  IL-6 ng/(ml* No. of cells from photo) ± SD: 1027±36 ng/(ml* No. of cells from photo)
Interleukin 6 (IL-6); 1 µM, 100 µM H2O2
  IL-6 ng/(ml* No. of cells from photo) ± SD: 1034±27 ng/(ml* No. of cells from photo)
Interleukin 6 (IL-6); 1 µM, Standard conditions
  IL-6 ng/(ml* No. of cells from photo) ± SD: 612±31 ng/(ml* No. of cells from photo)
Interleukin 6 (IL-6); 10 µM, 34 ng/ml TGF-β1
  IL-6 ng/(ml* No. of cells from photo) ± SD: 1244±58 ng/(ml* No. of cells from photo)
Interleukin 6 (IL-6); 10 µM, 100 µM H2O2
  IL-6 ng/(ml* No. of cells from photo) ± SD: 1710±114 ng/(ml* No. of cells from photo)
Interleukin 6 (IL-6); 10 µM, Standard conditions
  IL-6 ng/(ml* No. of cells from photo) ± SD: 751±93 ng/(ml* No. of cells from photo)
Interleukin 6 (IL-6); 34 ng/ml TGF-β1
  IL-6 production (effect in words): tendency to increase IL-6 production in a dose-dependent manner
Interleukin 6 (IL-6); 100 µM H2O2
  IL-6 production (effect in words): tendency to increase IL-6 production in a dose-dependent manner
Interleukin 6 (IL-6); standard conditions
  IL-6 production (effect in words): tendency to increase IL-6 production in a dose-dependent manner
[3]
  concentrations below which no significant effects on mitochondrial dehydrogenase activity are shown: below 1 µM
[3]; [6]
  Revitalizing agent: No
[3]; Dose 10 µm
  Revitalizing agent: No
[3]; 24 h
  activity at 1 µM: 84.5 ± 3.17%
  activity at 10 µM: 62.3 ± 11.8%
[3]; 42 h
  activity at 1 µM: 90.1 ± 2.3%
  activity at 10 µM: 139 ± 5.34%
[3]; low dose for a prolonged period of time, to a lesser extent
  mitochondrial dehydrogenase activity (effect in words): stimulatory effects
[3]; overall
  mitochondrial dehydrogenase activity (effect in words): mostly inhibitory effects
Interleukin 1β (IL-1β); 1 µM, 34 ng/ml TGF-β1
  IL-1β ng/(ml* No. of cells from photo) ± SD: 207±8 ng/(ml* No. of cells from photo)
Interleukin 1β (IL-1β); 1 µM, 100 µM H2O2
  IL-1β ng/(ml* No. of cells from photo) ± SD: 174±20 ng/(ml* No. of cells from photo)
Interleukin 1β (IL-1β); 1 µM, Standard conditions
  IL-1β ng/(ml* No. of cells from photo) ± SD: 137±12 ng/(ml* No. of cells from photo)
Interleukin 1β (IL-1β); 10 µM, 34 ng/ml TGF-β1
  IL-1β ng/(ml* No. of cells from photo) ± SD: 267±15 ng/(ml* No. of cells from photo)
Interleukin 1β (IL-1β); 10 µM, 100 µM H2O2
  IL-1β ng/(ml* No. of cells from photo) ± SD: 236±8 ng/(ml* No. of cells from photo)
Interleukin 1β (IL-1β); 10 µM, Standard conditions
  IL-1β ng/(ml* No. of cells from photo) ± SD: 155±7 ng/(ml* No. of cells from photo)
Interleukin 1β (IL-1β); 34 ng/ml TGF-β1
  IL-1β production (effect in words): tendency to increase IL-1β production in a dose-dependent manner
Interleukin 1β (IL-1β); 100 µM H2O2
  IL-1β production (effect in words): tendency to increase IL-1β production in a dose-dependent manner
Interleukin 1β (IL-1β); standard conditions
  IL-1β production (effect in words): tendency to increase IL-1β production in a dose-dependent manner
HDF cells [4]; 1 µM, 34 ng/ml TGF-β1
  No. of cells from photo ± SD: 111±18
HDF cells [4]; 1 µM, 100 µM H2O2
  No. of cells from photo ± SD: 143±17
HDF cells [4]; 1 µM, Standard conditions
  No. of cells from photo ± SD: 144±12
HDF cells [4]; 10 µM, 34 ng/ml TGF-β1
  No. of cells from photo ± SD: 86±6
HDF cells [4]; 10 µM, 100 µM H2O2
  No. of cells from photo ± SD: 114±0
HDF cells [4]; 10 µM, Standard conditions
  No. of cells from photo ± SD: 129±27
[5]; 1-10 µM (1 µM and 10 µM), 34 ng/ml TGF-β1
  collagen production (effect in words): stimulates collagen production in a dose-dependent manner
[5]; 1-10 µM (1 µM and 10 µM), 100 µM H2O2
  collagen production (effect in words): stimulates collagen production in a dose-dependent manner
[5]; 1-10 µM, standard conditions
  collagen production (effect in words): stimulates collagen production in a dose-dependent manner
[1]; 1 mM, 30 minutes
  % DPPH activity: 114%
[1]; [6]
  Anti-radical (skin protective): No
[1]; Dose 10 µm
  Anti-radical (skin protective): No
